Assays:
[1] = biological target: T1, Choline O-acetyltransferase (Gallus gallus) (UniProt Q90YJ9); assay: Inhibition of chick optic lobe choline acetyltransferase (ChAT) at 10e-4 M
T1 sequence (whole entry): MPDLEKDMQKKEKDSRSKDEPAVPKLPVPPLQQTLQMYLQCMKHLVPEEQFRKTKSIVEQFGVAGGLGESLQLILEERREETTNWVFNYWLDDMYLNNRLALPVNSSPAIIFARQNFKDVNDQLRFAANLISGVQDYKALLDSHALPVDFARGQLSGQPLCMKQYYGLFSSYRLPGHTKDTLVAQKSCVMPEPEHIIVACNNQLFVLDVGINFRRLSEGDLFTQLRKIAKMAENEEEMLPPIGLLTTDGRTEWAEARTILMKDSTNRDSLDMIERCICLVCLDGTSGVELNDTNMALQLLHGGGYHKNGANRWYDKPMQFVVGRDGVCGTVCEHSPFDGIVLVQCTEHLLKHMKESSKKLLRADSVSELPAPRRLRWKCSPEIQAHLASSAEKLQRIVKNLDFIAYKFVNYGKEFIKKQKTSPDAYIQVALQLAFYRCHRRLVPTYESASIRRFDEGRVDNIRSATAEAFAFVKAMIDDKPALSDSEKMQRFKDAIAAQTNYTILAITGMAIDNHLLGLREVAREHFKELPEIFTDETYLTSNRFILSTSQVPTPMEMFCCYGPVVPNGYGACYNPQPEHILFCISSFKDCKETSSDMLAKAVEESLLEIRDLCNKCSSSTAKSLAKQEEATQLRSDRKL

[2] = biological target: T2, Choline O-acetyltransferase (Gallus gallus, UniProt Q90YJ9); assay: Compound was tested in vitro for inhibitory activity against chick optic lobe choline acetyltransferase (ChAT)
T2 sequence (Q90YJ9 whole entry): T1 sequence (whole entry)

[3] = biological target: T3, Choline O-acetyltransferase (Rattus norvegicus, UniProt P32738); assay: Compound was tested in vitro for inhibitory activity against rat choline acetyltransferase (ChAT)
T3 sequence (P32738 whole entry): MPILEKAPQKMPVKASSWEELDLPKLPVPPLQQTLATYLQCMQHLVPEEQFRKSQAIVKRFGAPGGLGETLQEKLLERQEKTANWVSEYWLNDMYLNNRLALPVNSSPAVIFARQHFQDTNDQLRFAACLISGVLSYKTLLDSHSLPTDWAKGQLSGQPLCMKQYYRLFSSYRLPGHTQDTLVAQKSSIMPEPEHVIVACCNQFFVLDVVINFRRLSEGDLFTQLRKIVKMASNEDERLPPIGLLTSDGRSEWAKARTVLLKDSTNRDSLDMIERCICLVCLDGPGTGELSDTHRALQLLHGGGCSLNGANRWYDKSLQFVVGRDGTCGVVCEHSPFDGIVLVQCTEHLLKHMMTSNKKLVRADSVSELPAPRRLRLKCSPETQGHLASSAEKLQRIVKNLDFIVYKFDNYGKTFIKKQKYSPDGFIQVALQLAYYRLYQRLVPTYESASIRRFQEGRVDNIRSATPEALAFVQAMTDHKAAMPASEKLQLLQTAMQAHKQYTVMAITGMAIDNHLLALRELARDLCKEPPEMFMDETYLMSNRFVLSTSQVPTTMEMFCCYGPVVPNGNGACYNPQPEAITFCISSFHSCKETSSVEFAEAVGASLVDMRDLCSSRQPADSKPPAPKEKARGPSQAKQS

[4] = biological target: T2, Choline O-acetyltransferase; assay: Compound was tested in vitro for inhibitory activity against chick choline acetyltransferase (ChAT)

Row | SMILES | inhibition [1] [%] | further results
1 | Cc1cc2nc(/C=C/c3ccncc3)[nH]c2cc1C | < 1 | –
2 | CCCC[n+]1cccc(/C=C/c2nc3cc(C)c(C)cc3[nH]2)c1 | < 1 | –
3 | C[n+]1ccc(/C=C/c2cccc3ccccc23)cc1 | 73 | IC50 [2]: 40 µM
4 | CCCCCCCCCC[n+]1ccc(/C=C/c2nc3cc(C)c(C)cc3[nH]2)cc1 | < 1 | –
5 | Cc1cc2nc(/C=C/c3cccnc3)[nH]c2cc1C | < 1 | –
6 | CCC[n+]1ccc(/C=C/c2cccc3ccccc23)cc1 | 80 | IC50 [3]: 30 µM; IC50 [4]: 58 µM; IC50 [2]: 29 µM

Second part, led by results:

Row | inhibition [1] [%] | SMILES | further results
7 | < 1 | Cc1cc2nc(/C=C/c3ccc[n+](C)c3)[nH]c2cc1C | –
8 | < 1 | C[n+]1ccc(/C=N/c2nc3ccccc3[nH]2)cc1 | –
9 | 5 | C(=C\c1cccc2ccccc12)/c1ccncc1 | –
10 | < 1 | CCCC[n+]1ccc(/C=C/c2nc3cc(C)c(C)cc3[nH]2)cc1 | –
11 | 78 | NC(=O)C[n+]1ccc(/C=C/c2cccc3ccccc23)cc1 | IC50 [2]: 37 µM
12 | < 1 | CCCC[n+]1ccc(/C=C/c2ncc[nH]2)cc1 | –
13 | < 1 | Cc1cc2nc(/C=C/c3cc[n+](C)cc3)[nH]c2cc1C | –

— ChEMBL document CHEMBL1126369, “(E)-1-alkyl-[2-(1H-azol-2-yl)vinyl]pyridinium salts: theoretical analysis, synthesis and evaluation of their interaction with choline acetyltransferase” (Bioorg Med Chem Lett, 1992)
